Data as given in publication PMC4977753, “Inhibition of ADAM10 promotes the clearance of Aβ across the BBB by reducing LRP1 ectodomain shedding” (Fluids and Barriers of the CNS, 2016).

Tests used:
[1] = system: LRP1 shedding in human brain endothelial cells (HBMEC); test: In vitro LRP1 shedding in HBMEC monolayers (LRP1 ELISA of extracellular media); format: cell-based; conditions: 48 h, 37 °C
Procedure: Human Brain Microvessel endothelial cells (HBMECs) (ScienCell, USA) were seeded at 50,000 cells per cm^2 onto fibronectin-coated 6-well plates as previously described by our group. When approximately 90 % confluent, cells were treated with Aβ42 (2 μM) or both Aβ42 and the ADAM10-selective inhibitor GI254023X (1 μM) (Sigma-Aldrich, USA) and incubated at 37 °C for 48 h. […] After the 48 h incubation, the extracellular media was collected and the level of soluble LRP1 was assessed using an ELISA for LRP1 (Cat# SEB010Hu, Cedar Lane Labs, USA).
Fig. 1 LRP1shedding in human brain endothelial cells (HBMEC) following ADAM10 inhibition. HBMEC monolayers were exposed to human Aβ42 (2 μM) alone, Aβ42 (2 μM) and the ADAM10 inhibitor GI254023X (1 μM) for 48 h at 37 °C. LRP shedding was assessed by examining LRP content in the extracellular media using an LRP1 ELISA. Values represent mean ± SEM (n = 3) and are expressed as ng of extracellular LRP1 per ml of media. *p < 0.05 as determined by one-way ANOVA followed by Tukey’s post hoc analysis

PSAPP mice [2] = test: Aβ, soluble LRP1 and sAPPα levels in PSAPP mice following ADAM10 inhibition; format: in vivo, mouse; conditions: 200 mg/kg i.p. once per day for 5 days
Procedure: PSAPP mice at 35 weeks of age were injected intraperitoneally with 200 mg/kg of GI254023X or vehicle (DMSO) once per day for 5 consecutive days. At this age, PSAPP mice display elevated levels of Aβ peptides in the brain [22]. […] One hour after the final injection, the mice were euthanatized and plasma and brain tissue were collected. The right hemisphere was used to examine the levels of soluble and insoluble Aβ40 and Aβ42 in the brain. Briefly, the hemispheres were homogenized by sonication in 700 μl lysis buffer [M-PER + 1 % EDTA +0.2 % PMSF (Thermo Scientific, USA)] supplemented with Halt protease and phosphatase inhibitor cocktail (Thermo Scientific, USA) on ice before centrifugation at 14000g for 30 min at 4 °C. 100 μl of the resulting supernatant was mixed with 5 M guanidine in TRIS buffer resulting in the guanidine soluble (GS) fraction. For the guanidine insoluble (GI) fraction, 100 μl of the guanidine stock was combined with the original tissue pellet. Both GS and GI fractions were subsequently incubated at room temperature for 1 h and were mixed every 15 min. All samples were stored at −80 °C prior to analysis. Quantification of Aβ40 and Aβ42 in the GS, GI, and plasma fractions was determined using an ELISA for human Aβ40 and Aβ42 (Invitrogen, USA) and expressed as ng of Aβ per μg total protein. The left hemisphere was used to examine the levels of soluble LRP1 in the brain. Here, the hemisphere was homogenized using a Dounce homogenizer in ice cold in HBSS using the same procedure as the in vivo LRP1 shedding studies above. LRP1 levels in the soluble brain fraction and plasma were assessed using a mouse ELISA for LRP1 (Cedar Lane Labs, USA). Soluble brain LRP1 was normalized to the total protein content in the brain homogenate as determined by the BCA protein assay (Thermo Scientific, USA). Soluble brain LRP1 levels were expressed as ng of LRP1 per mg protein. Plasma LRP1 levels were expressed as ng/ml. In addition, sAPPα levels were examined in the brain homogenate of these same animals using an ELISA for sAPPα (IBL international, USA). The sAPPα levels were normalized to the total protein content in the brain homogenate as determined by the BCA protein assay and expressed as ng of sAPPα per mg protein.
Fig. 4 LRP1 shedding brain and plasma following ADAM10 modulation in a mouse model of AD. The ADAM10 inhibitor GI254023X (200 mg/kg) or vehicle (DMSO) was administered via intraperitoneal injection once per day for five consecutive days to PSAPP mice (35 weeks of age). One hour after the final injection, the brains and plasma was collected and the soluble brain fraction a and the plasma b was probed for LRP using an ELISA. Values represent mean ± SEM (n = 8–9 [soluble brain LRP1] or 5 [soluble plasma LRP1]) and are expressed as the amount of LRP per mg total protein or per ml. *p < 0.05 as determined by an unpaired t test
Fig. 5 Levels of sAPPα in the brain following ADAM10 modulation in a mouse model of AD. PSAPP mice (35 weeks of age) were treated in an acute 5-day treatment paradigm with ADAM10 inhibitor GI254023X (200 mg/kg) or vehicle (DMSO) which were administered via intraperitoneal injection. One hour after the final treatment, the brains were collected and sAPPα in the whole brain homogenate was probed using an sAPPα ELISA. Values represent mean ± SEM (n = 8–9) and are expressed as the amount of sAPPα per mg total protein. Statistical significance determined by an unpaired t test
Fig. 6 Aβ plasma levels following ADAM10 modulation in a mouse model of AD. The ADAM10 inhibitor GI254023X (200 mg/kg) or vehicle (DMSO) was administered via intraperitoneal injection once per day for five consecutive days to PSAPP mice (35 weeks of age). One hour after the final injection, the plasma was collected and probed for a Aβ40 and b Aβ42 by ELISA. Values represent mean ± SEM (n = 8–9) and are expressed as the amount of Aβ40 or Aβ42 per ml of plasma. […]

mice = conditions: 200 mg/kg i.p. once per day for 5 consecutive days; cited from earlier work
Procedure: PSAPP mice at 35 weeks of age were injected intraperitoneally with 200 mg/kg of GI254023X or vehicle (DMSO) once per day for 5 consecutive days. At this age, PSAPP mice display elevated levels of Aβ peptides in the brain [22]. […] One hour after the final injection, the mice were euthanatized and plasma and brain tissue were collected. The right hemisphere was used to examine the levels of soluble and insoluble Aβ40 and Aβ42 in the brain. ...

PSAPP mice [3] = test: Tolerability of the GI254023X treatment regimen in PSAPP mice; format: in vivo; conditions: 200 mg/kg i.p. once per day for 5 days
Procedure: PSAPP mice at 35 weeks of age were injected intraperitoneally with 200 mg/kg of GI254023X or vehicle (DMSO) once per day for 5 consecutive days. At this age, PSAPP mice display elevated levels of Aβ peptides in the brain [22]. […] One hour after the final injection, the mice were euthanatized and plasma and brain tissue were collected. The right hemisphere was used to examine the levels of soluble and insoluble Aβ40 and Aβ42 in the brain. […] Quantification of Aβ40 and Aβ42 in the GS, GI, and plasma fractions was determined using an ELISA for human Aβ40 and Aβ42 (Invitrogen, USA) and expressed as ng of Aβ per μg total protein. […] LRP1 levels in the soluble brain fraction and plasma were assessed using a mouse ELISA for LRP1 (Cedar Lane Labs, USA). Soluble brain LRP1 was normalized to the total protein content in the brain homogenate as determined by the BCA protein assay (Thermo Scientific, USA). Soluble brain LRP1 levels were expressed as ng of LRP1 per mg protein. Plasma LRP1 levels were expressed as ng/ml. […] The sAPPα levels were normalized to the total protein content in the brain homogenate as determined by the BCA protein assay and expressed as ng of sAPPα per mg protein.

[4] = system: in vitro BBB model (HBMEC monolayer); test: Permeability of paracellular marker Lucifer yellow-dextran across the in vitro BBB model (integrity control); format: cell-based, human; conditions: 10 kDa Lucifer yellow-dextran, any of the GI254023X concentrations, data not shown
[5] = system: in vitro BBB model (HBMEC monolayer); test: Fluorescein-Aβ42 transit across an in vitro BBB model; format: cell-based, human; conditions: fluorescein-Aβ42 2 μM basolateral, 60 min, 37 °C, basolateral-to-apical, n = 3
Procedure: The impact of ADAM10 on Aβ42 transcytosis was assessed using an in vitro BBB model previously described by our group. HBMECs were seeded onto fibronectin-coated 24-well membrane inserts forming a polarized monolayer representing the BBB. Aβ transcytosis across the BBB was assessed by exposing the basolateral side (“brain”) to 2 μM fluorescein-Aβ42 (rPeptide, USA) and treating the apical side (“blood”) with the ADAM10-selective inhibitor GI254023X (0.1–1 μM). After 60 min of incubation at 37 °C, samples were collected from the apical compartment to assess the basolateral-to-apical transcytosis of fluorescein-Aβ across the BBB model.
Fig. 2 Fluorescin-Aβ42 transit across an in vitro BBB model following ADAM10 inhibition. Fluorescin-Aβ42 (2 μM) was exposed to the basolateral (“brain”) side of the in vitro BBB model, while various concentrations of the ADAM10 inhibitor GI254023X (0, 0.1, 1, and 10 μM) were exposed to the apical (“blood”) compartment. Following incubation at 37 °C, samples were collected from the […] at 60 min to assess the basolateral-to-apical transcytosis of fluorescin-Aβ42 across the BBB model. Values represent mean ± SEM (n = 3) and are expressed as the percentage change from control conditions. *p < 0.05; **p < 0.01; ***p < 0.001 as determined by one-way ANOVA followed by Tukey’s post hoc analysis

[6] = PSAPP mice, guanidine insoluble fraction, ELISA, n = 8-9, not statistically significant
[7] = PSAPP mice, guanidine soluble fraction, ELISA, n = 8-9, not statistically significant

| Compound | extracellular shedding of LRP1 compared to control conditions ([1]; Aβ42 2 μM, mean ± SEM n = 3, significant (p < 0.05)) | effect on Aβ42-induced extracellular LRP1 shedding ([1]; Aβ42 2 μM plus GI254023X 1 μM, n = 3) | reduction of soluble LRP1 in the brain versus vehicle (PSAPP mice [2]; PSAPP mice 35 weeks, 1 h after final injection, soluble brain fraction, ELISA, n = 8-9, p < 0.05) [%] | reduction of insoluble Aβ40 in the brain versus vehicle (PSAPP mice [2]; [6]) [fold] | reduction of insoluble Aβ42 in the brain versus vehicle (PSAPP mice [2]; [6]) [fold] | reduction of soluble Aβ40 in the brain versus vehicle (PSAPP mice [2]; [7]) [fold] | reduction of soluble Aβ42 in the brain versus vehicle (PSAPP mice [2]; [7]) [fold] | LRP1 levels in the plasma versus vehicle (PSAPP mice [2]; PSAPP mice, plasma, ELISA, n = 5) | effect on Aβ42 plasma levels versus vehicle (PSAPP mice [2]; PSAPP mice, plasma, ELISA, n = 8-9) | increase of Aβ40 in the plasma versus vehicle (PSAPP mice [2]; PSAPP mice, plasma, ELISA, n = 8-9, significant) [fold] | level of sAPPα in the brain versus vehicle (PSAPP mice [2]; PSAPP mice, whole brain homogenate, sAPPα ELISA, n = 8-9) | ADAM10 activity in mice under this treatment regime (mice) | tolerability of treatment regime (mice) | tolerability of treatment regimen (appearance, behavior, weight loss) (PSAPP mice [3]) | BBB permeability of the paracellular marker Lucifer yellow-dextran versus control [4] | transcytosis of fluorescein-Aβ across in vitro BBB model (trend) ([5]; GI254023X 0.1, 1, 10 μM apical) | increase of fluorescein-Aβ transcytosis across in vitro BBB model versus control ([5]; significant increases at concentrations higher than 1 μM GI254023X) [fold] |
| --- | --- | --- | --- | --- | --- | --- | --- | --- | --- | --- | --- | --- | --- | --- | --- | --- | --- |
| Aβ42: human recombinant beta-amyloid 42 peptide, used to induce LRP1 shedding; fluorescein-labeled form used as transport probe | twofold |  |  |  |  |  |  |  |  |  |  |  |  |  |  |  |  |
| CNC(=O)[C@@H](NC(=O)[C@H](CCCc1ccccc1)[C@H](C)N(O)C=O)C(C)(C)C [GI254023X] |  | completely abrogated the effect of Aβ42 on shedding | 60 | 1.20 | 1.20 | 1.15 | 1.25 | not significantly different | not significant | 1.45 | No significant difference | effectively inhibit ADAM10 activity | well tolerated with no adverse effects reported | well tolerated | no significant difference | increased following GI254023X treatment in a dose dependent manner | ≥ 1.25 |
